Assay results from ChEMBL document CHEMBL3853300, “Synthesis of α-santonin derived acetyl santonous acid triazole derivatives and their bioevaluation for T and B-cell proliferation” (Eur J Med Chem, 2016).

Tests used:
[1] = Immunosuppressive activity in Balb/c mouse B cells assessed as inhibition of LPS-induced cell proliferation at 100 uM after 48 hrs by MTT assay relative to control; format: functional
[2] = Immunosuppressive activity in Balb/c mouse B cells assessed as inhibition of LPS-induced cell proliferation at 1 uM after 48 hrs by MTT assay relative to control; format: functional
Mus musculus [3] = species on record: Mus musculus; assay: Cytotoxicity against Balb/c mouse B cells assessed as decrease in cell viability at 10 uM after 48 hrs by MTT assay; format: toxicity, cell-based
[4] = Immunosuppressive activity in Balb/c mouse T cells assessed as inhibition of ConA-induced cell proliferation at 1 uM after 48 hrs by MTT assay relative to control; format: functional
B = assay: Immunosuppressive activity in Balb/c mouse B cells assessed as inhibition of LPS-induced cell proliferation after 48 hrs by MTT assay relative to control; format: functional, cell-based
[5] = Immunosuppressive activity in Balb/c mouse B cells assessed as inhibition of LPS-induced cell proliferation at 10 uM after 48 hrs by MTT assay relative to control; format: functional
Mus musculus [6] = species on record: Mus musculus; assay: Cytotoxicity against Balb/c mouse T cells assessed as decrease in cell viability at 10 uM after 48 hrs by MTT assay; format: toxicity, cell-based
Mus musculus [7] = species on record: Mus musculus; assay: Cytotoxicity against Balb/c mouse T cells assessed as decrease in cell viability at 100 uM after 48 hrs by MTT assay; format: toxicity, cell-based
[8] = Immunosuppressive activity in Balb/c mouse T cells assessed as inhibition of ConA-induced cell proliferation at 10 uM after 48 hrs by MTT assay relative to control; format: functional
Mus musculus [9] = species on record: Mus musculus; assay: Cytotoxicity against Balb/c mouse B cells assessed as decrease in cell viability at 100 uM after 48 hrs by MTT assay; format: toxicity, cell-based
T-cell = assay: Immunosuppressive activity in Balb/c mouse T cells assessed as inhibition of ConA-induced cell proliferation after 48 hrs by MTT assay relative to control; format: functional, cell-based
[10] = Immunosuppressive activity in Balb/c mouse B cells assessed as inhibition of LPS-induced cell proliferation at 50 uM after 48 hrs by MTT assay relative to control; format: functional
Mus musculus [11] = species on record: Mus musculus; assay: Cytotoxicity against Balb/c mouse T cells assessed as decrease in cell viability at 1 uM after 48 hrs by MTT assay; format: toxicity, cell-based
[12] = Immunosuppressive activity in Balb/c mouse T cells assessed as inhibition of ConA-induced cell proliferation at 100 uM after 48 hrs by MTT assay relative to control; format: functional
Mus musculus [13] = species on record: Mus musculus; assay: Cytotoxicity against Balb/c mouse B cells assessed as decrease in cell viability at 1 uM after 48 hrs by MTT assay; format: toxicity, cell-based
[14] = Immunostimulatory activity in Balb/c mouse B cells assessed as induction of LPS-induced cell proliferation at 100 uM after 48 hrs by MTT assay relative to control; format: cell-based
[15] = Immunostimulatory activity in Balb/c mouse B cells assessed as induction of LPS-induced cell proliferation at 10 uM after 48 hrs by MTT assay relative to control; format: cell-based
[16] = Immunostimulatory activity in Balb/c mouse B cells assessed as induction of LPS-induced cell proliferation at 1 uM after 48 hrs by MTT assay relative to control; format: cell-based

| Structure (SMILES) | inhibition at 100 µM [1] | inhibition at 1 µM [2] | Activity (Mus musculus [3]) | inhibition at 1 µM [4] | inhibition (B) | inhibition at 10 µM [5] | Activity (Mus musculus [6]) | Activity (Mus musculus [7]) | inhibition at 10 µM [8] | Activity (Mus musculus [9]) | inhibition (T-cell) | inhibition at 50 µM [10] | Activity (Mus musculus [11]) | inhibition at 100 µM [12] | Activity (Mus musculus [13]) | Activity [14] | Activity [15] | Activity [16] |
| --- | --- | --- | --- | --- | --- | --- | --- | --- | --- | --- | --- | --- | --- | --- | --- | --- | --- | --- |
| CC(=O)Oc1cc(C)c2c(c1C)C[C@H]([C@@H](C)C(=O)O)CC2 | 71.8% | 58.8% | Toxic | 31.8% | Dose-dependent effect | 57.2% | Toxic | Non-Toxic | 52.3% | Non-Toxic | Dose-dependent effect | 75% | Toxic | 75% | Toxic | – | – | – |
| CC(=O)Oc1cc(C)c2c(c1C)C[C@H]([C@@H](C)C(=O)OCc1cn(-c3cccc(C#N)c3)nn1)CC2 | – | – | Non-Toxic | 20.4% | – | – | Non-Toxic | Toxic | 25.9% | Toxic | – | – | Toxic | 45.4% | Toxic | 37.71% | 42.28% | 8% |
